Assay results published in patent publication US8354416B2 (Glaxo Group Limited, priority 2005, dated 2013).
Where a name gives a salt, the structure may show the parent alone.

Test system: influx of neutrophils to the lung in LPS-challenged rats
Assay: Rat LPS neutrophilia model
Assay type: in vivo
Settings: intratracheal, LPS aerosol 100 ug/ml, in at least one of the range of conditions tested, significance p<0.05
Experimental: Rat LPS Neutrophilia Model
The effect of compounds on the influx of neutrophils to the lung in LPS-challenged rats is evaluated as follows. The test compound is suspended in one of the following solutions: 0.5% tween 80/PBS, 0.5% tween 80/saline, 10% EtOH/saline (with pH adjusted to 2.0, or 8.0 with HCl, or unadjusted), Saline (pH 2.0, 6.5 or 8.0, 0.5% Tragacanth, 1% DMSO/20% Encapsin/Saline, or acidified 5% Tragacanth. The suspension process may be aided by the use of a glass homogenizer. For intratracheal administration, the animals are anesthetized with inhaled isoflurane and placed in a supine position, the trachea is intubated with a steel gavage needle (1.5 inch, 22 gauge, small ball) or a Penn-Century Microsprayer Aerosolizer (model IA-1B) and 200 ul of dosing solution is delivered. The animals are visually monitored during the recovery process, which typically occurs within two minutes. It is noted that the test compounds may be alternatively administered via the microsprayer in a dry powder blend with a suitable excipient, such as lactose.
Rats treated with compound or vehicle (15 min-24 hours pretreatment) are exposed to an LPS aerosol (100 ug/ml) for 15 min. Four hours later the rats are euthanized with pentobarbital (100 mg/kg, i.p.) and the airways are lavaged with 5 washes of 5 ml of phosphate buffered saline. The harvested cells are stained (Diffquick) and counted to determine total and differential cell data. […] Inhibition of neutrophil levels relative to no compound controls is calculated based on the differential counts.
The data is obtained as % inhibition using a particular concentration and pretreat time.

Compound	inhibition of neutrophilia (neutrophil levels in airway lavage relative to no compound controls)
CCCNC(=O)c1ccc(C)c(-c2nc(N3CCC(N)CC3)nc3c2ccc(=O)n3-c2c(F)cccc2F)c1 [Example 69, 3-[2-(4-amino-1-piperidinyl)-8-(2,6-difluorophenyl)-7-oxo-7,8-dihydropyrido[2,3-d]pyrimidin-4-yl]-4-methyl-N-propylbenzamide]	statistically significant inhibition of neutrophilia
Cc1ccc(C(=O)Nc2nccs2)cc1-c1nc(NCCNC(C)C)nc2c1ccc(=O)n2-c1c(F)cccc1F [Example 103, 3-[8-(2,6-difluorophenyl)-2-({2-[(1-methylethyl)amino]ethyl}amino)-7-oxo-7,8-dihydropyrido[2,3-d]pyrimidin-4-yl]-4-methyl-N-1,3-thiazol-2-ylbenzamide]	statistically significant inhibition of neutrophilia
Cc1ccc(C(=O)NC(C)C)cc1-c1nc(NCCN(C)C)nc2c1ccc(=O)n2-c1c(F)cccc1F [Example 117, 3-(8-(2,6-difluorophenyl)-2-{[2-(dimethylamino)ethyl]amino}-7-oxo-7,8-dihydropyrido[2,3-d]pyrimidin-4-yl)-4-methyl-N-(1-methylethyl)benzamide]	statistically significant inhibition of neutrophilia
Cc1ccc(C(=O)NC2CCCC2)cc1-c1nc(N2CCC(N)CC2)nc2c1ccc(=O)n2-c1c(F)cccc1F [Example 70, 3-[2-(4-amino-1-piperidinyl)-8-(2,6-difluorophenyl)-7-oxo-7,8-dihydropyrido[2,3-d]pyrimidin-4-yl]-N-cyclopentyl-4-methylbenzamide]	statistically nonsignificant inhibition of neutrophilia
Cc1ccc(C(=O)NCc2ccccc2)cc1-c1nc(NCc2ncc[nH]2)nc2c1ccc(=O)n2-c1c(F)cccc1F [Example 77, 3-{8-(2,6-difluorophenyl)-2-[(1H-imidazol-2-ylmethyl)amino]-7-oxo-7,8-dihydropyrido[2,3-d]pyrimidin-4-yl}-4-methyl-N-(phenylmethyl)benzamide]	statistically significant inhibition of neutrophilia
Cc1ccc(C(=O)NC2CCCC2)cc1-c1nc(N2CCC(N3CCC(C)CC3)CC2)nc2c1ccc(=O)n2-c1c(F)cccc1F [Example 169, N-cyclopentyl-3-[8-(2,6-difluorophenyl)-2-(4-methyl-1,4′-bipiperidin-1′-yl)-7-oxo-7,8-dihydropyrido[2,3-d]pyrimidin-4-yl]-4-methylbenzamide]	statistically nonsignificant inhibition of neutrophilia
CCN(CC)CCCNc1nc(-c2cc(C(=O)NCC3CCCCC3)ccc2C)c2ccc(=O)n(-c3c(F)cccc3F)c2n1 [Example 135, N-(cyclohexylmethyl)-3-[2-{[3-(diethylamino)propyl]amino}-8-(2,6-difluorophenyl)-7-oxo-7,8-dihydropyrido[2,3-d]pyrimidin-4-yl]-4-methylbenzamidetrifluoroacetate]	inactive
CNCCNc1nc(-c2cc(C(=O)Nc3ccc(F)cc3)ccc2C)c2ccc(=O)n(-c3c(F)cccc3F)c2n1 [Example 60, 3-(8-(2,6-difluorophenyl)-2-{[2-(methylamino)ethyl]amino}-7-oxo-7,8-dihydropyrido[2,3-d]pyrimidin-4-yl)-N-(4-fluorophenyl)-4-methylbenzamide]	statistically significant inhibition of neutrophilia
Cc1ccc(C(=O)Nc2nccs2)cc1-c1nc(NCc2ncc[nH]2)nc2c1ccc(=O)n2-c1c(F)cccc1F [79(c), 3-{8-(2,6-difluorophenyl)-2-[(1H-imidazol-2-ylmethyl)amino]-7-oxo-7,8-dihydropyrido[2,3-d]pyrimidin-4-yl}-4-methyl-N-1,3-thiazol-2-ylbenzamide]	statistically significant inhibition of neutrophilia
CCCNC(=O)c1ccc(C)c(-c2nc(N(C)CCCN(C)C)nc3c2ccc(=O)n3-c2c(F)cccc2F)c1 [Example 104, 3-{8-(2,6-difluorophenyl)-2-[[3-(dimethylamino)propyl](methyl)amino]-7-oxo-7,8-dihydropyrido[2,3-d]pyrimidin-4-yl}-4-methyl-N-propylbenzamide]	statistically significant inhibition of neutrophilia
Cc1ccc(C(=O)Nc2ccc(F)cc2)cc1-c1nc(NCCN(C)C(=O)OC(C)(C)C)nc2c1ccc(=O)n2-c1c(F)cccc1F [Example 95, 1,1-dimethylethyl (2-{[8-(2,6-difluorophenyl)-4-(5-{[(4-fluorophenyl)amino]carbonyl}-2-methylphenyl)-7-oxo-7,8-dihydropyrido[2,3-d]pyrimidin-2-yl]amino}ethyl)methylcarbamate]	statistically nonsignificant inhibition of neutrophilia
CCN(CC)CCCNc1nc(-c2cc(C(=O)N[C@@H](C)c3ccccc3)ccc2C)c2ccc(=O)n(-c3c(F)cccc3F)c2n1 [Example 149, 3-[2-{[3-(diethylamino)propyl]amino}-8-(2,6-difluorophenyl)-7-oxo-7,8-dihydropyrido[2,3-d]pyrimidin-4-yl]-4-methyl-N-[(1S)-1-phenylethyl]benzamide]	inactive
Cc1ccc(C(=O)NC2CCC2)cc1-c1nc(N2CCC(N3CCC(C)CC3)CC2)nc2c1ccc(=O)n2-c1c(F)cccc1F [Example 175, N-cyclobutyl-3-[8-(2,6-difluorophenyl)-2-(4-methyl-1,4′-bipiperidin-1′-yl)-7-oxo-7,8-dihydropyrido[2,3-d]pyrimidin-4-yl]-4-methylbenzamide]	inactive
CNCCNc1nc(-c2cc(C(=O)NC3CCCC3)ccc2C)c2ccc(=O)n(-c3c(F)cccc3F)c2n1 [Example 58, N-cyclopentyl-3-(8-(2,6-difluorophenyl)-2-{[2-(methylamino)ethyl]amino}-7-oxo-7,8-dihydropyrido[2,3-d]pyrimidin-4-yl)-4-methylbenzamide]	statistically significant inhibition of neutrophilia
CCN(CC)CCCNc1nc(-c2cc(C(=O)NCC3CC3)ccc2C)c2ccc(=O)n(-c3c(F)cccc3F)c2n1 [Example 138, N-(cyclopropylmethyl)-3-[2-{[3-(diethylamino)propyl]amino}-8-(2,6-difluorophenyl)-7-oxo-7,8-dihydropyrido[2,3-d]pyrimidin-4-yl]-4-methylbenzamide trifluoroacetate]	statistically nonsignificant inhibition of neutrophilia
CCN(CC)CCCNc1nc(-c2cc(C(=O)NCCF)ccc2C)c2ccc(=O)n(-c3c(F)cccc3F)c2n1 [Example 133, 3-[2-{[3-(diethylamino)propyl]amino}-8-(2,6-difluorophenyl)-7-oxo-7,8-dihydropyrido[2,3-d]pyrimidin-4-yl]-N-(2-fluoroethyl)-4-methylbenzamidetrifluoroacetate]	statistically significant inhibition of neutrophilia
Cc1ccc(C(=O)NC2CC2)cc1-c1nc(NCc2ncc[nH]2)nc2c1ccc(=O)n2-c1c(F)cccc1F [Example 23, N-cyclopropyl-3-{8-(2,6-difluorophenyl)-2-[(1H-imidazol-2-ylmethyl)amino]-7-oxo-7,8-dihydropyrido[2,3-d]pyrimidin-4-yl}-4-methylbenzamide]	statistically nonsignificant inhibition of neutrophilia
CNCCNc1nc(-c2cc(C(=O)NCC3CC3)ccc2C)c2ccc(=O)n(-c3c(F)cccc3F)c2n1 [Example 4]	statistically significant inhibition of neutrophilia
Cc1ccc(C(=O)NC2CCCC2)cc1-c1nc(NCc2ncc[nH]2)nc2c1ccc(=O)n2-c1c(F)cccc1F [Example 76, N-cyclopentyl-3-{8-(2,6-difluorophenyl)-2-[(1H-imidazol-2-ylmethyl)amino]-7-oxo-7,8-dihydropyrido[2,3-d]pyrimidin-4-yl}-4-methylbenzamide]	statistically nonsignificant inhibition of neutrophilia
CCCNC(=O)c1ccc(C)c(-c2nc(N3CCC(N4CCC(C)CC4)CC3)nc3c2ccc(=O)n3-c2c(F)cccc2F)c1 [Example 166, 3-[8-(2,6-difluorophenyl)-2-(4-methyl-1,4′-bipiperidin-1′-yl)-7-oxo-7,8-dihydropyrido[2,3-d]pyrimidin-4-yl]-4-methyl-N-propylbenzamide]	statistically significant inhibition of neutrophilia
Cc1ccc(C(=O)NCc2ccccc2)cc1-c1nc(N2CCC(N)CC2)nc2c1ccc(=O)n2-c1c(F)cccc1F [Example 71, 3-[2-(4-amino-1-piperidinyl)-8-(2,6-difluorophenyl)-7-oxo-7,8-dihydropyrido[2,3-d]pyrimidin-4-yl]-4-methyl-N-(phenylmethyl)benzamide]	statistically nonsignificant inhibition of neutrophilia
